Experimental data from US10722484B2, “Methods of cancer treatment” (K-Gen, Inc., priority 2016, dated 2020).
Like-named read-outs stand apart in the source and are kept apart here.

How the values were obtained:
Experiment in all cases: Proliferation assay (CellTiter Glo)
A549 = format: cell-based; conditions: 96 hours; for EC50: Homo sapiens
Protocol: (§1) The dose range for most compounds was 4.6 nM-30 μM. The dose ranges for some compounds were adjusted downward to 0.46 nM-3 μM or 0.08 nM-0.5 μM or 0.03 nM-0.2 μM. […] The results are shown in Tables 3-6 for pancreatic cancer, lung cancer, colon/gastric cancer, and leukemia.

CCRF-CEM = format: cell-based; conditions: 96 hours; for EC50: Homo sapiens
Protocol: as §1

H441 = format: cell-based; conditions: 96 hours; for EC50: Homo sapiens, NCI-H441
Protocol: as §1

SW620 = format: cell-based; conditions: 96 hours; for EC50: Homo sapiens, SW-620
Protocol: as §1

H358 = format: cell-based; conditions: HE58, 96 hours; for EC50: Homo sapiens, NCI-H358
Protocol: as §1

H727 = format: cell-based; conditions: 96 hours; for EC50: Homo sapiens, NCI-H727
Protocol: as §1

LS180 = format: cell-based; conditions: 96 hours; for EC50: Homo sapiens
Protocol: as §1

Pan2.13 = format: cell-based; conditions: 96 hours
Protocol: as §1

KP-4 = format: cell-based; conditions: 96 hours; for EC50: Homo sapiens
Protocol: as §1

HCT116 = format: cell-based; conditions: 96 hours; for EC50: Homo sapiens, HCT-116
Protocol: as §1

AsPC-1 = format: cell-based; conditions: 96 hours; for EC50: Homo sapiens, ASPC1
Protocol: as §1

THP1 = format: cell-based, human; conditions: 96 hours; for EC50: Homo sapiens, THP-1
Protocol: as §1

HL60 = format: cell-based, human; conditions: 96 hours; for EC50: Homo sapiens, HL-60
Protocol: as §1

How did the “Top Inhibition %” value (A549; A549, % of top inhibition) turn out when `CC(=O)O[C@H]1C(=O)[C@@]2(C)[C@H]([C@H](OC(=O)c3ccccc3)[C@]3(O)C[C@H](OC(=O)[C@H](O)[C@@H](NC(=O)c4ccccc4)c4ccccc4)C(C)=C1C3(C)C)[C@]1(OC(C)=O)CO[C@@H]1C[C@@H]2O` [Paclitaxel] was run?
Its value is 86.0%.

And the EC50 (A549; A549 (K-RAS: G12S), absolute EC50, read-out: Ab EC50)?
Its EC50 is 2.6 nM.

What about the EC50 (A549; A549, relative EC50, read-out: Re EC50) of the same molecule?
The EC50 was 2.3 nM.

What about the “Top Inhibition %” value (CCRF-CEM; CCRF-CEM, % of top inhibition) of the same molecule?
Its value is 97.8%.

What about the EC50 (CCRF-CEM; CCRF-CEM (K-RAS: G12D), absolute EC50, read-out: Ab EC50) of the same molecule?
The EC50 was 4 nM.

What about the EC50 (CCRF-CEM; CCRF-CEM, relative EC50, read-out: Re EC50) of the same molecule?
Its EC50 is 3.9 nM.

And the “Top Inhibition %” value (H441; H441, % of top inhibition)?
The value was 51.9%.

And the EC50 (H441; H441 (K-RAS: G12V), absolute EC50, read-out: Ab EC50)?
The EC50 was 35.8 nM.

What about the EC50 (H441; H441, relative EC50, read-out: Re EC50) of the same molecule?
The EC50 was 3.5 nM.

And the EC50 (SW620; SW620 (K-RAS: G12V), absolute EC50, read-out: Ab EC50)?
The EC50 was 12 nM.

What about the EC50 (SW620; SW620, relative EC50, read-out: Re EC50) of the same molecule?
The EC50 was 9.4 nM.

And the “Top Inhibition %” value (SW620; SW620, % of top inhibition)?
Its value is 92.1%.

And the “Top Inhibition %” value (H358; % of top inhibition)?
Its value is 89.2%.

What about the EC50 (H358; absolute EC50, read-out: Ab EC50) of the same molecule?
The EC50 was 2.4 nM.

What about the EC50 (H358; relative EC50, read-out: Re EC50) of the same molecule?
Its EC50 is 1.8 nM.

And the “Top Inhibition %” value (H727; H727, % of top inhibition)?
The value was 49.0%.

What about the EC50 (H727; H727 (K-RAS: G12V), absolute EC50, read-out: Ab EC50) of the same molecule?
Its EC50 is > 500 nM.

What about the EC50 (H727; H727, relative EC50, read-out: Re EC50) of the same molecule?
The EC50 was 2.3 nM.

What about the EC50 (LS180; LS180 (K-RAS: G12D), absolute EC50, read-out: Ab EC50) of the same molecule?
The EC50 was 14 nM.

And the EC50 (LS180; LS180, relative EC50, read-out: Re EC50)?
Its EC50 is 8.8 nM.

What about the “Top Inhibition %” value (LS180; LS180, % of top inhibition) of the same molecule?
The value was 67.1%.

What about the EC50 (Pan2.13; Pan2.13 (K-RAS: Q61H), absolute EC50, read-out: Ab EC50) of the same molecule?
The EC50 was 65 nM.

And the “Top Inhibition %” value (Pan2.13; Pan2.13, % of top inhibition)?
The value was 53.2%.

And the EC50 (Pan2.13; Pan2.13, relative EC50, read-out: Re EC50)?
Its EC50 is 2.7 nM.

And the EC50 (KP-4; KP-4 (K-RAS: G12C), absolute EC50, read-out: Ab EC50)?
Its EC50 is 1.9 nM.

And the EC50 (KP-4; KP-4, relative EC50, read-out: Re EC50)?
Its EC50 is 1.8 nM.

And the “Top Inhibition %” value (KP-4; KP-4, % of top inhibition)?
The value was 96.2%.

And the “Top Inhibition %” value (HCT116; HCT116, % of top inhibition)?
Its value is 94.8%.

What about the EC50 (HCT116; HCT116 (K-RAS: G13D), absolute EC50, read-out: Ab EC50) of the same molecule?
The EC50 was 2.2 nM.

And the EC50 (HCT116; HCT116, relative EC50, read-out: Re EC50)?
The EC50 was 2.1 nM.

And the “Top Inhibition %” value (AsPC-1; AsPC-1, % of top inhibition)?
Its value is 60.9%.

What about the EC50 (AsPC-1; AsPC-1 (K-RAS: G12D), absolute EC50, read-out: Ab EC50) of the same molecule?
The EC50 was 10 nM.

And the EC50 (AsPC-1; AsPC-1, relative EC50, read-out: Re EC50)?
The EC50 was 3.8 nM.

What about the EC50 (THP1; THP1 (N-RAS: G12D), absolute EC50, read-out: Ab EC50) of the same molecule?
The EC50 was 8.3 nM.

What about the EC50 (THP1; THP1, relative EC50, read-out: Re EC50) of the same molecule?
Its EC50 is 7.6 nM.

What about the “Top Inhibition %” value (THP1; THP1, % of top inhibition) of the same molecule?
Its value is 91.2%.

And the “Top Inhibition %” value (HL60; HL60, % of top inhibition)?
The value was 98.7%.

And the EC50 (HL60; HL60 (N-RAS: Q61L), absolute EC50, read-out: Ab EC50)?
Its EC50 is 5.2 nM.

And the EC50 (HL60; HL60, relative EC50, read-out: Re EC50)?
Its EC50 is 5.2 nM.
